In US9474790B2, “Stable, protracted GLP-1/glucagon receptor co-agonists for medical use” (Novo Nordisk A/S, priority 2013, dated 2016):
Numbered stars: 1 amine (or outer) side, 2 acyl side, 3 side chain; on linkers, the order of the positions; unused ones are H or OH. Bridge positions count the residues as written; N and C are the ends. Square brackets hold non-standard residues; d marks the D form. Side chains are listed from the residue outwards. Peptide text beside a SMILES is read from it. I, II: the chains in the order shown. * marks the point of attachment. C18 diacid = O=C(O)CCCCCCCCCCCCCCCCC(=O)*; γGlu = O=C(O)[C@H](CCC(=O)[*:2])N[*:1]; Ac4c = NC1(C(=O)O)CCC1; AEEA = NCCOCCOCC(=O)O; Aib = CC(C)(N)C(=O)O

Experiment: Thioflavin T (ThT) fibrillation assay for physical stability
Format: physicochemical
Settings: 250 μM in 10 mM HEPES buffer, pH 7.5, 37° C., shaking 960 rpm
In short: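 Fibrillation was followed by ThT (1 μM) fluorescence every 20 min, 444/485 nm, for 250 μM peptide in 10 mM HEPES pH 7.5 shaken at 960 rpm, 37° C. Lag time (t0−2τ) and apparent rate constant (1/τ) come from a sigmoidal fit. Recovery is % of initial concentration remaining soluble after centrifugation and filtration (RP-HPLC).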

CC(C)C[C@H](NC(=O)[C@H](Cc1ccc(O)cc1)NC(=O)[C@H](CCCCN)NC(=O)[C@H](CO)NC(=O)[C@H](CC(C)C)NC(=O)[C@H](CC(=O)O)NC(=O)[C@H](CO)NC(=O)[C@@H](NC(=O)[C@H](Cc1ccccc1)NC(=O)[C@@H](NC(=O)CNC(=O)[C@H](Cc1c[nH]cn1)NC(=O)C1(NC(=O)[C@@H](N)Cc2c[nH]cn2)CCC1)[C@@H](C)O)[C@@H](C)O)C(=O)N[C@@H](CCC(=O)O)C(=O)N[C@@H](CO)C(=O)N[C@@H](CCCNC(=N)N)C(=O)N[C@@H](CCCNC(=N)N)C(=O)N[C@@H](C)C(=O)N[C@@H](CCC(N)=O)C(=O)N[C@@H](CC(=O)O)C(=O)N[C@@H](Cc1ccccc1)C(=O)N[C@H](C(=O)N[C@@H](CCC(N)=O)C(=O)N[C@@H](Cc1c[nH]c2ccccc12)C(=O)N[C@@H](CC(C)C)C(=O)N[C@@H](CC(C)C)C(=O)N[C@@H](CCCCNC(=O)CNC(=O)[C@H](CO)NC(=O)[C@H](CCC(=O)O)NC(=O)CNC(=O)[C@H](CO)NC(=O)CC[C@H](NC(=O)CC[C@H](NC(=O)CCCCCCCCCCCCCCCCC(=O)O)C(=O)O)C(=O)O)C(=O)N[C@H](C(N)=O)[C@@H](C)O)C(C)C [Example 35, N^ε28-[2-[[(2S)-2-[[(2S)-4-carboxy-2-[[2-[[(2S)-2-[[(4S)-4-carboxy-4-[[(4S)-4-carboxy-4-(17-carboxyheptadecanoylamino)butanoyl]amino]butanoyl]amino]-3-hydroxypropanoyl]amino]acetyl]amino]butanoyl]amino]-3-hydroxypropanoyl]amino]acetyl]-[Acb2,His3,Leu10,Glu15, Leu27,Lys28]-Glucagon amide] (I: H-H[Ac4c]HGTFTSDLSKYLESRRAQDFVQWLLKT-NH2 / II: {C18 diacid-γGlu-γGlu}-SGESG; amide I:28-II:C; N-terminus assumed) and CC(C)C[C@H](NC(=O)[C@H](Cc1ccc(O)cc1)NC(=O)[C@H](CCCCN)NC(=O)[C@H](CO)NC(=O)[C@H](CC(C)C)NC(=O)[C@H](CC(=O)O)NC(=O)[C@H](CO)NC(=O)[C@@H](NC(=O)[C@H](Cc1ccccc1)NC(=O)[C@@H](NC(=O)CNC(=O)[C@H](Cc1c[nH]cn1)NC(=O)C(C)(C)NC(=O)[C@@H](N)Cc1c[nH]cn1)[C@@H](C)O)[C@@H](C)O)C(=O)N[C@@H](CCC(=O)O)C(=O)N[C@@H](CO)C(=O)N[C@@H](CCCNC(=N)N)C(=O)N[C@@H](CCCNC(=N)N)C(=O)N[C@@H](C)C(=O)N[C@@H](CCCNC(=N)N)C(=O)N[C@@H](CC(=O)O)C(=O)N[C@@H](Cc1ccccc1)C(=O)N[C@H](C(=O)N[C@@H](CCC(N)=O)C(=O)N[C@@H](Cc1c[nH]c2ccccc12)C(=O)N[C@@H](CC(C)C)C(=O)N[C@@H](CC(C)C)C(=O)N[C@@H](CCCCNC(=O)CNC(=O)[C@H](CO)NC(=O)[C@H](CCC(=O)O)NC(=O)CNC(=O)[C@H](CO)NC(=O)CC[C@H](NC(=O)CC[C@H](NC(=O)CCCCCCCCCCCCCCCCC(=O)O)C(=O)O)C(=O)O)C(=O)N[C@H](C(N)=O)[C@@H](C)O)C(C)C [Example 37, N^ε28-[2-[[(2S)-2-[[(2S)-4-carboxy-2-[[2-[[(2S)-2-[[(4S)-4-carboxy-4-[[(4S)-4-carboxy-4-(17-carboxyheptadecanoylamino)butanoyl]amino]butanoyl]amino]-3-hydroxypropanoyl]amino]acetyl]amino]butanoyl]amino]-3-hydroxypropanoyl]amino]acetyl]-[Aib2,His3,Leu10,Glu15, Arg20,Leu27,Lys28]-Glucagon amide] (I: H-H[Aib]HGTFTSDLSKYLESRRARDFVQWLLKT-NH2 / II: {C18 diacid-γGlu-γGlu}-SGESG; amide I:28-II:C; N-terminus assumed) are the same in THT assay Lag time (Ex. 76): 45 h for the first, 45 h for the second.

First: CC(C)C[C@H](NC(=O)[C@H](Cc1ccc(O)cc1)NC(=O)[C@H](CCCNC(=N)N)NC(=O)[C@H](CO)NC(=O)[C@H](CC(C)C)NC(=O)[C@H](CC(=O)O)NC(=O)[C@H](CO)NC(=O)[C@@H](NC(=O)[C@H](Cc1ccccc1)NC(=O)[C@@H](NC(=O)CNC(=O)[C@H](CCC(N)=O)NC(=O)C1(NC(=O)[C@@H](N)Cc2c[nH]cn2)CCC1)[C@@H](C)O)[C@@H](C)O)C(=O)N[C@@H](CCC(=O)O)C(=O)N[C@@H](CO)C(=O)N[C@@H](CCCNC(=N)N)C(=O)N[C@@H](CCCNC(=N)N)C(=O)N[C@@H](C)C(=O)N[C@@H](CCCNC(=N)N)C(=O)N[C@@H](CCC(=O)O)C(=O)N[C@@H](Cc1ccccc1)C(=O)N[C@H](C(=O)N[C@@H](CCC(N)=O)C(=O)N[C@@H](Cc1c[nH]c2ccccc12)C(=O)N[C@@H](CC(C)C)C(=O)N[C@@H](CC(C)C)C(=O)N[C@@H](CCCCNC(=O)CC[C@H](NC(=O)CC[C@H](NC(=O)COCCOCCNC(=O)COCCOCCNC(=O)CC[C@H](NC(=O)CC[C@H](NC(=O)CCCCCCCCCCCCCCCCC(=O)O)C(=O)O)C(=O)O)C(=O)O)C(=O)O)C(=O)N[C@H](C(N)=O)[C@@H](C)O)C(C)C [Example 59, N^ε28-[(4S)-4-carboxy-4-[[(4S)-4-carboxy-4-[[2-[2-[2-[[2-[2-[2-[[(4S)-4-carboxy-4-[[(4S)-4-carboxy-4-(17-carboxyheptadecanoylamino)butanoyl]amino]butanoyl]amino]ethoxy]ethoxy]acetyl]amino]ethoxy]ethoxy]acetyl]amino]butanoyl]amino]butanoyl]-[Acb2,Leu10,Arg12,Glu15,Arg20,Glu21,Leu27,Lys28]-Glucagon amide] (H-H[Ac4c]QGTFTSDLSRYLESRRAREFVQWLLK([γGlu-γGlu-AEEA-AEEA-γGlu-γGlu-C18 diacid])T-NH2; N-terminus assumed)
Second: CC(C)C[C@H](NC(=O)[C@H](Cc1c[nH]c2ccccc12)NC(=O)[C@H](C)NC(=O)[C@@H](NC(=O)[C@H](Cc1ccccc1)NC(=O)[C@H](CCC(=O)O)NC(=O)[C@H](CCCNC(=N)N)NC(=O)[C@H](C)NC(=O)[C@H](CCCNC(=N)N)NC(=O)[C@H](CCCNC(=N)N)NC(=O)[C@H](CCCCNC(=O)CC[C@H](NC(=O)COCCOCCNC(=O)COCCOCCNC(=O)CC[C@H](NC(=O)CC[C@H](NC(=O)CCCCCCCCCCCCCCCCC(=O)O)C(=O)O)C(=O)O)C(=O)O)NC(=O)[C@H](CC(=O)O)NC(=O)[C@H](CC(C)C)NC(=O)[C@H](Cc1ccc(O)cc1)NC(=O)[C@H](CCCCN)NC(=O)[C@H](CO)NC(=O)[C@H](CC(C)C)NC(=O)[C@H](CC(=O)O)NC(=O)[C@H](CO)NC(=O)[C@@H](NC(=O)[C@H](Cc1ccccc1)NC(=O)[C@@H](NC(=O)CNC(=O)[C@H](CCC(N)=O)NC(=O)C(C)(C)NC(=O)[C@@H](N)Cc1c[nH]cn1)[C@@H](C)O)[C@@H](C)O)C(C)C)C(=O)N[C@@H](CC(C)C)C(=O)N[C@@H](CC(N)=O)C(=O)N[C@H](C(N)=O)[C@@H](C)O [Example 19, N^ε29-[(4S)-4-carboxy-4-[[2-[2-[2-[[2-[2-[2-[[(4S)-4-carboxy-4-[[(4S)-4-carboxy-4-(17-carboxyheptadecanoylamino)butanoyl]amino]butanoyl]amino]ethoxy]ethoxy]acetyl]amino]ethoxy]ethoxy]acetyl]amino]butanoyl]-[Aib2,Leu10,Lys16,Arg20,Glu21,Ala24,Leu27]-Glucagon amide] (H-H[Aib]QGTFTSDLSKYLDK([γGlu-AEEA-AEEA-γGlu-γGlu-C18 diacid])RRAREFVAWLLNT-NH2; N-terminus assumed)
The THT assay Lag time (Ex. 76) of the first is 1.8-fold higher: 12 h for the first, 6.7 h for the second.

For CC(C)C[C@H](NC(=O)[C@H](Cc1c[nH]c2ccccc12)NC(=O)[C@H](C)NC(=O)[C@@H](NC(=O)[C@H](Cc1ccccc1)NC(=O)[C@H](CCC(=O)O)NC(=O)[C@H](CCCNC(=N)N)NC(=O)[C@H](C)NC(=O)[C@H](CCCNC(=N)N)NC(=O)[C@H](CCCNC(=N)N)NC(=O)[C@H](CO)NC(=O)[C@H](CCC(=O)O)NC(=O)[C@H](CC(C)C)NC(=O)[C@H](Cc1ccc(O)cc1)NC(=O)[C@H](CCCCN)NC(=O)[C@H](CO)NC(=O)[C@H](CC(C)C)NC(=O)[C@H](CC(=O)O)NC(=O)[C@H](CO)NC(=O)[C@@H](NC(=O)[C@H](Cc1ccccc1)NC(=O)[C@@H](NC(=O)CNC(=O)[C@H](Cc1c[nH]cn1)NC(=O)C(C)(C)NC(=O)[C@@H](N)Cc1c[nH]cn1)[C@@H](C)O)[C@@H](C)O)C(C)C)C(=O)N[C@@H](CC(C)C)C(=O)N[C@@H](CCCCNC(=O)CC[C@H](NC(=O)COCCOCCNC(=O)COCCOCCNC(=O)CC[C@H](NC(=O)CC[C@H](NC(=O)CCCCCCCCCCCCCCCCC(=O)O)C(=O)O)C(=O)O)C(=O)O)C(=O)N[C@H](C(N)=O)[C@@H](C)O [Example 31, N^ε28-[(4S)-4-carboxy-4-[[2-[2-[2-[[2-[2-[2-[[(4S)-4-carboxy-4-[[(4S)-4-carboxy-4-(17-carboxyheptadecanoylamino)butanoyl]amino]butanoyl]amino]ethoxy]ethoxy]acetyl]amino]ethoxy]ethoxy]acetyl]amino]butanoyl]-[Aib2,His3,Leu10,Glu15,Arg20,Glu21,Ala24,Leu27, Lys28]-Glucagon amide] (H-H[Aib]HGTFTSDLSKYLESRRAREFVAWLLK([γGlu-AEEA-AEEA-γGlu-γGlu-C18 diacid])T-NH2; N-terminus assumed), the THT assay Lag time (Ex. 76) was 45 h.
